Test results as given in publication PMC11242993, “Evaluation of the Therapeutic Potential of Sulfonyl Urea Derivatives as Soluble Epoxide Hydrolase (sEH) Inhibitors” (Molecules, 2024).
“Also recorded” adds a separate entry of the source.

Legend:
mice = assay: LPS-induced acute lung injury (ALI) model; assay type: in vivo; conditions: 10 mg/kg i.p.
Experimental: LPS-induced acute lung injury induced by a single oropharyngeal instillation of lipopolysaccharide (LPS) (50 µg/mouse) in 16-week-old mice as described previously. Briefly, LPS (L4391, MilliporeSigma, Burlington, MA, USA) was dissolved in sterile saline and administered at 50 µg/mouse in 40 µL after anesthesia induced by ketamine/xylazine. The mice were studied 24 h after LPS or saline instillation.
BALF was collected from anesthetized mice by lavaging lungs two times with 0.8 mL Hanks’ balanced salt solution without calcium and magnesium (HBSS) (Sigma-Aldrich, St. Louis, MI, USA). Supernatants were collected as BALF for further analyses.
The number of cells in the BALF was estimated using an automated cell counter, the Countess II FL cell counter (Thermo Fisher Scientific Inc., Waltham, MA, USA).
Albumin levels were measured by the Mouse Albumin Elisa Assay kit (Cat # E99-134), which was obtained from Bethyl Laboratories. BALF samples from the LPS group were diluted at a 1:2000 ratio.
Total protein in BALF samples was measured using the Pierce BCA protein assay kit (Cat # 23225) as detailed in the product manual (Thermo Fisher Scientific).
The right middle lobe was immediately placed in an RNA later solution and stored at −80 °C until the RNA extraction procedure. RNA extraction was performed using RNeasy Mini Kits from Qiagen (Valencia, CA, USA). One microgram of total RNA was reverse transcribed to cDNA using an iScript cDNA synthesis kit (Bio-Rad, Hercules, CA, USA). Expression of the target genes was quantified using gene-specific primers and PowerSYBRGreen master mix (Thermo Fisher Scientific) in a QuantStudio 3 Real-Time PCR instrument (Thermo Fisher Scientific). Predesigned mouse IL-6 (QT00098875), TNF-α (QT00104006), IL-1β (QT01048355), CXCL1 (QT00115647), CCL2 (QT00167832), CXCL3 (QT00151599) and CXCL9 (QT00097062) primers were purchased from Qiagen (Valencia, CA, USA). Fold changes in gene expression relative to the housekeeping gene TATA-Box Binding Protein (Tbp, QT00198443) were determined. Gene expression values were calculated based on the […] method.

mouse recombinant sEH = molecular target: T1, mouse recombinant sEH (Mus musculus, UniProt P34914); assay: Fluorescence-based sEH activity assay (PHOME substrate), mouse enzyme; assay type: biochemical; conditions: dose-dependent assay; read-out: Mouse sEH Inhibition IC50
T1 sequence (P34914 1-554): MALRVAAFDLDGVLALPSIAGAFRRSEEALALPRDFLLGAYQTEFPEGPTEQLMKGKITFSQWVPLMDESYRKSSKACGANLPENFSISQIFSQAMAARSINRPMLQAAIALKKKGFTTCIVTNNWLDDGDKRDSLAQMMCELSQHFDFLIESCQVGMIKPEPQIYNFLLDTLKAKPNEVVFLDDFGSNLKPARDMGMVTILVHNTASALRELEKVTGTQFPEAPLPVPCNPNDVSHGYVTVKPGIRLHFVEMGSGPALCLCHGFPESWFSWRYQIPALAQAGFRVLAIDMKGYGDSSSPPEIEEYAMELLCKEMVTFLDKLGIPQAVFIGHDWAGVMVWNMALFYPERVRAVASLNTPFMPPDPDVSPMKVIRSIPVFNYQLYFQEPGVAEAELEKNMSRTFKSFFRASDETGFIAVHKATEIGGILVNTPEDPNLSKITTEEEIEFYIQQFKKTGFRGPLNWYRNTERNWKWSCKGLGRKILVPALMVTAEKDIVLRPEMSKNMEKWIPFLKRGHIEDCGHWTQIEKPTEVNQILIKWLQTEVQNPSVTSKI
Experimental: A fluorescence-based sEH activity assay provided a convenient method for screening human epoxide hydrolase inhibitors. The assay utilized (3-Phenyl-oxiranyl)-acetic acid cyano-(6-methoxy-naphthalen-2-yl)-methyl ester (PHOME) as a substrate. […] The inhibitory function of the compounds on sEH activity was tested as detailed in the product manual from Cayman Chemical. Briefly, 3 mL sEH assay buffer (10×) was diluted with 27 mL HPLC-grade water. This final assay buffer, 25 mM bis-tris (pH 7.0), was used in the assay and for the dilution of the soluble epoxide hydrolase (sEH) enzyme. Amounts of 12 μL each of human and mouse recombinant sEH were thawed on ice. Prior to assaying, 588 μL cold assay buffer was added directly to the enzyme vial. An amount of 190 μL assay buffer and 5 μL solvent (40% DMSO in assay buffer) were added to the background wells. In the 100% initial activity wells, 185 μL assay buffer, 5 μL sEH, and 5 μL solvent were added. In inhibitor wells, 185 μL assay buffer, 5 μL solution of the synthesized compounds, and 5 μL of recombinant enzyme solution were added. To start the reaction, 5 μL of PHOME was added to each well at a final concentration of 0.25 mM. The microwell plate was shaken carefully for 10 s and covered with a plate cover.
Average fluorescence (AF) of the background wells and 100% initial activity in the wells and of each of the inhibitors were determined. The background AF was subtracted from the 100% initial activity and inhibitor AFs. The % sEH activity is calculated as (inhbitited AF/% 100 initial activity) × 100.
Multiple concentrations of the inhibitors were tested followed by plotting of the percent activity as a function of inhibitor concentration to determine the IC50 values.

Row | Compound | effect on LPS-induced increase in total protein in BALF (mice) | LPS-induced lung gene expression of interleukin 1B (IL-1B) (mice; qPCR) | LPS-induced lung gene expression of interleukin 6 (IL-6) (mice; qPCR) | IC50 (mouse recombinant sEH) | number of cells in bronchoalveolar lavage (BAL) (mice) | lung gene expression of CCL-2 (mice; qPCR) | lung gene expression of CXCL1 (mice; qPCR) | LPS-induced lung gene expression of interleukin 6 (IL-6) (mice; qPCR, 10 mg/kg)
1 | O=C(NC12CC3CC(CC(C3)C1)C2)NS(=O)(=O)c1ccc2ccccc2c1 [Compound 4l] | neither AUDA nor novel sEH inhibitors’ (4f and 4l) effect | had no effect on reducing these | had no effect on reducing these | 190 nM |  |  |  | 
2 | O=C(NC12CC3CC(CC(C3)C1)C2)NS(=O)(=O)c1ccc(OC(F)(F)F)cc1 [Compound 4f] | neither AUDA nor novel sEH inhibitors’ (4f and 4l) effect | attenuated |  | 290 nM | similarly attenuated the number of cells in BAL | more pronounced in reducing IL-6 and CCL-2 expressions | similarly attenuated | attenuated; also recorded: more pronounced in reducing IL-6 and CCL-2 expressions
